Values quoted from earlier work in US20170245500A1 (priority 2014, published 2017).

Settings: some conditions, e.g. high temperature or higher soil pH

CCOP(=O)(SC(C)CC)N1CCSC1=O (stereo not shown) [fosthiazate]
time in which the pesticide can be degraded in soil: under ten
